Assay results: patent US20240158446A1, “CYCLIC COMPOUND HAVING SELECTIVE INHIBITORY ACTION ON KRAS OVER HRAS AND NRAS” (CHUGAI SEIYAKU KABUSHIKI KAISHA, priority 2021, published 2024)

Tests used:
[1] = target: GDP-bound KRAS wild-type protein (Homo sapiens, UniProt P01116); assay: Binding to KRAS by surface plasmon resonance (SPR), Single Cycle Kinetics; settings: SPR, Single Cycle Kinetics, GDP-bound KRAS wild-type protein; read-out: KRAS KD
[2] = target: GDP-bound NRAS wild-type protein (Homo sapiens, UniProt P01111); assay: Binding to NRAS by surface plasmon resonance (SPR), Single Cycle Kinetics; settings: ratio of KD for GDP-bound NRAS wild-type protein to KD for KRAS, SPR
Chain of GDP-bound NRAS wild-type protein (P01111 whole entry): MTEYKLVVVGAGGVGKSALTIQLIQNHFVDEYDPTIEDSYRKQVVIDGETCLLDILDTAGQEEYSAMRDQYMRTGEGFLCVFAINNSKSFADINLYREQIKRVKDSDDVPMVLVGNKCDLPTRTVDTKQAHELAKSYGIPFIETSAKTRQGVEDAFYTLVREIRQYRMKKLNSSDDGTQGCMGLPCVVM

[3] = target: GDP-bound HRAS wild-type protein (Homo sapiens, UniProt P01112); assay: Binding to HRAS by surface plasmon resonance (SPR), Single Cycle Kinetics; settings: ratio of KD for GDP-bound HRAS wild-type protein to KD for KRAS, SPR
Chain of GDP-bound HRAS wild-type protein (P01112 whole entry): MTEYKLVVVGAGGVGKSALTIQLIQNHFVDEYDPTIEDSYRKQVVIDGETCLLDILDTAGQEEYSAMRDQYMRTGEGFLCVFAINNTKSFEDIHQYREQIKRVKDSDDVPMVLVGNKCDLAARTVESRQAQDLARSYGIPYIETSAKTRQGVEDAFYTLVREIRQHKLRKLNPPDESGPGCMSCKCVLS

[4] = test system: human lung cancer strain NCI-H441; assay: cells; settings: NCI-H441, 96 h, read-out: NCI-H441 IC50 (nM), NCI-H441 cell proliferation, 4 days, CellTiter-Glo;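 further: cell proliferation inhibition after four days measured by CellTiter-Glo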

Chain of GDP-bound KRAS wild-type protein (P01116 whole entry): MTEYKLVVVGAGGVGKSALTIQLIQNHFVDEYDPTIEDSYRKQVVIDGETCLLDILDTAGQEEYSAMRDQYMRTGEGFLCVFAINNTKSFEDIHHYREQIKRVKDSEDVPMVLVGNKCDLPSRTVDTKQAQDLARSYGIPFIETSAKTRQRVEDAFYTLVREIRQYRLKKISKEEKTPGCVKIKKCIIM

SMILES | Kd [1] [nM] | NRAS/KRAS (KD ratio) [2] | HRAS/KRAS (KD ratio) [3] | IC50 [4] [nM]
CC[C@H](C)[C@@H]1NC(=O)[C@H](CC(F)F)N(C)C(=O)C[C@@H](C(=O)N(C)C)N(C)C(=O)[C@H](C2CCCC2)N(C)C(=O)C2(CC(C)(C)C2)NC(=O)[C@@H]2C[C@H](C)CN2C(=O)[C@H](CCc2cc(F)c(C(F)(F)F)c(F)c2)NC(=O)CN(C)C(=O)[C@H](Cc2ccc(C(F)(F)F)cc2)N2CC/C=C\C[C@@H](C2=O)N(C)C(=O)CN(C)C1=O [PP1658] | 0.12 | A (a compound having 10 or more and less than 20 is denoted as A) | A (a compound having 10 or more and less than 20 is denoted as A) | 3.8
CC[C@H](C)[C@@H]1NC(=O)[C@H](CC2CC2)N(C)C(=O)C[C@@H](C(=O)N(C)C)N(C)C(=O)[C@H](C2CCCC2)N(C)C(=O)C2(CC(C)(C)C2)NC(=O)[C@@H]2C[C@H](C)CN2C(=O)[C@H](CCc2cc(F)c(C(F)(F)F)c(F)c2)NC(=O)CN(C)C(=O)[C@H](Cc2ccc(C(F)(F)F)cc2)N2CC/C=C\C[C@@H](C2=O)N(C)C(=O)CN(C)C1=O [PP1660] | 0.11 | A (a compound having 10 or more and less than 20 is denoted as A) | A (a compound having 10 or more and less than 20 is denoted as A) | 4.3
CCCC[C@H]1C(=O)N[C@@H]([C@@H](C)CC)C(=O)N(C)CC(=O)N(C)[C@H]2C/C=C\CCN(C2=O)[C@@H](Cc2ccc(C(F)(F)F)cc2)C(=O)N(C)CC(=O)N[C@@H](CCc2cc(F)c(C(F)(F)F)c(F)c2)C(=O)N2C[C@@H](C)C[C@H]2C(=O)NC2(CC(C)(C)C2)C(=O)N(C)[C@@H](C2CCCC2)C(=O)N(C)[C@H](C(=O)N(C)C)CC(=O)N1C [PP1661] | 0.19 | A (a compound having 10 or more and less than 20 is denoted as A) | A (a compound having 10 or more and less than 20 is denoted as A) | 5.7
CC[C@H](C)[C@@H]1NC(=O)[C@H](CC(C)C)N(C)C(=O)C[C@@H](C(=O)N(C)C)N(C)C(=O)[C@H](C2CCCC2)N(C)C(=O)C2(CC(C)(C)C2)NC(=O)[C@@H]2C[C@H](C)CN2C(=O)[C@H](CCc2cc(F)c(C(F)(F)F)c(F)c2)NC(=O)CN(C)C(=O)[C@H](Cc2ccc(C(F)(F)F)cc2)N2CC/C=C\C[C@@H](C2=O)N(C)C(=O)CN(C)C1=O [PP1662] | 0.14 | A (a compound having 10 or more and less than 20 is denoted as A) | B (a compound having 3 or more and less than 10 is denoted as B) | 6.4
CCCN(C)C(=O)[C@@H]1CC(=O)N(C)[C@@H](C)C(=O)N[C@@H]([C@@H](C)CC)C(=O)N(C)CC(=O)N(C)[C@H]2C/C=C\CCN(C2=O)[C@@H](Cc2ccc(C(F)(F)F)cc2)C(=O)N(C)CC(=O)N[C@@H](CCc2cc(F)c(C(F)(F)F)c(F)c2)C(=O)N2C[C@H](F)C[C@H]2C(=O)NC2(CC(C)(C)C2)C(=O)N(C)[C@@H](C2CCCC2)C(=O)N1C [PP1663] | 0.038 | AA (a compound having 20 or more is denoted as AA) | A (a compound having 10 or more and less than 20 is denoted as A) | 3.6
CCCN(C)C(=O)[C@@H]1CC(=O)N(C)[C@@H](CC2CC2)C(=O)N[C@@H]([C@@H](C)CC)C(=O)N(C)CC(=O)N(C)[C@H]2C/C=C\CCN(C2=O)[C@@H](Cc2ccc(C(F)(F)F)cc2)C(=O)N(C)CC(=O)N[C@@H](CCc2cc(F)c(C(F)(F)F)c(F)c2)C(=O)N2C[C@H](F)C[C@H]2C(=O)NC2(CC(C)(C)C2)C(=O)N(C)[C@@H](C2CCCC2)C(=O)N1C [PP1665] | 0.066 | AA (a compound having 20 or more is denoted as AA) | A (a compound having 10 or more and less than 20 is denoted as A) | 3.1
CCCN(C)C(=O)[C@@H]1CC(=O)N(C)[C@@H](C)C(=O)N[C@@H]([C@@H](C)CC)C(=O)N(C)CC(=O)N(C)[C@H]2C/C=C\CCN(C2=O)[C@@H](Cc2ccc(C(F)(F)F)cc2)C(=O)N(C)CC(=O)N[C@@H](CCc2cc(F)c(C(F)(F)F)c(F)c2)C(=O)N2C[C@H](OCC)C[C@H]2C(=O)NC2(CCC2)C(=O)N(C)[C@@H](C2CCCC2)C(=O)N1C [PP1666] | 0.076 | A (a compound having 10 or more and less than 20 is denoted as A) | A (a compound having 10 or more and less than 20 is denoted as A) | 8.1
CCCOC[C@H]1C(=O)N[C@@H]([C@@H](C)CC)C(=O)N(C)CC(=O)N(C)[C@H]2C/C=C\CCN(C2=O)[C@@H](Cc2ccc(C(F)(F)F)cc2)C(=O)N(C)CC(=O)N[C@@H](CCc2cc(F)c(C(F)(F)F)c(F)c2)C(=O)N2C[C@H](OCC)C[C@H]2C(=O)NC2(CCC2)C(=O)N(C)[C@@H](C2CCCC2)C(=O)N(C)[C@H](C(=O)N(C)CCC)CC(=O)N1C [PP1668] | 0.13 | A (a compound having 10 or more and less than 20 is denoted as A) | A (a compound having 10 or more and less than 20 is denoted as A) | 5.3
CCCN(C)C(=O)[C@@H]1CC(=O)N(C)[C@@H](CC)C(=O)N[C@@H]([C@@H](C)CC)C(=O)N(C)CC(=O)N(C)[C@H]2C/C=C\CCN(C2=O)[C@@H](Cc2ccc(C(F)(F)F)cc2)C(=O)N(C)CC(=O)N[C@@H](CCc2cc(F)c(C(F)(F)F)c(F)c2)C(=O)N2C[C@H](OCC)C[C@H]2C(=O)NC2(CC(C)(C)C2)C(=O)N(C)[C@@H](C2CCCC2)C(=O)N1C [PP1670] | 0.1 | A (a compound having 10 or more and less than 20 is denoted as A) | A (a compound having 10 or more and less than 20 is denoted as A) | 6.7
CCO[C@@H]1C[C@H]2C(=O)NC3(CC(C)(C)C3)C(=O)N(C)[C@@H](C3CCCC3)C(=O)N(C)[C@H](C(=O)N(C)CC)CC(=O)N(C)[C@@H](COC)C(=O)N[C@@H]([C@@H](C)CC)C(=O)N(C)CC(=O)N(C)[C@H]3C/C=C\CCN(C3=O)[C@@H](Cc3ccc(C(F)(F)F)cc3)C(=O)N(C)CC(=O)N[C@@H](CCc3cc(F)c(C(F)(F)F)c(F)c3)C(=O)N2C1 [PP1671] | 0.077 | A (a compound having 10 or more and less than 20 is denoted as A) | A (a compound having 10 or more and less than 20 is denoted as A) | 3
CCCN(C)C(=O)[C@@H]1CC(=O)N(C)[C@@H](COC)C(=O)N[C@@H]([C@@H](C)CC)C(=O)N(C)CC(=O)N(C)[C@H]2C/C=C\CCN(C2=O)[C@@H](Cc2ccc(C(F)(F)F)cc2)C(=O)N(C)CC(=O)N[C@@H](CCc2cc(F)c(C(F)(F)F)c(F)c2)C(=O)N2C[C@H](OCC)C[C@H]2C(=O)NC2(CC(C)(C)C2)C(=O)N(C)[C@@H](C2CCCC2)C(=O)N1C [PP1672] | 0.087 | A (a compound having 10 or more and less than 20 is denoted as A) | A (a compound having 10 or more and less than 20 is denoted as A) | 6
CCCOC[C@H]1C(=O)N[C@@H]([C@@H](C)CC)C(=O)N(C)CC(=O)N(C)[C@H]2C/C=C\CCN(C2=O)[C@@H](Cc2ccc(C(F)(F)F)cc2)C(=O)N(C)CC(=O)N[C@@H](CCc2cc(F)c(C(F)(F)F)c(F)c2)C(=O)N2C[C@H](OCC)C[C@H]2C(=O)NC2(CC(C)(C)C2)C(=O)N(C)[C@@H](C2CCCC2)C(=O)N(C)[C@H](C(=O)N(C)CCC)CC(=O)N1C [PP1673] | 0.16 | A (a compound having 10 or more and less than 20 is denoted as A) | A (a compound having 10 or more and less than 20 is denoted as A) | 6
